Source: US10857136B2, “Compounds for use in the prevention and/or treatment of non-alcoholic fat liver disease and non-alcoholic steatohepatitis” (SJT MOLECULAR RESEARCH, SL, priority 2017, dated 2020)

What was measured:
Assay type in all cases: in vivo
[1] = system: DIO mice (C57Bl/6J male mice); test: Insulin resistance (HOMA-IR), 36 days assay in DIO mice; settings: 50 mg/kg orally twice daily for 36 days, days 1, 8, 15, 22, 29 and 36, vs saline control, similar to metformin 150 mg/kg
Description: To assess the performance of the compounds disclosed in decreasing insulin resistance, DIO mice (C57Bl/6J male mice) were treated with hydrochloride salts of compounds 4a, 5a; and with compound 7a during 36 days, versus a control treated with saline (0.9% NaCl) and versus DIO mice treated with metformin as a positive control.
(§1) For the assessment, 60 C57Bl/6 J male mice (16-week-old at delivery and 40 g of average weight), obtained from Charles River France put on high fat diet for 10 weeks. The animals were housed in ventilated and enriched housing cages (310×125×127 mm^3) throughout the experimental phase. Animals' cages litters were changed at least once a week. Mice were housed in groups of 10 mice on a normal 12 hours light cycle (at 08:00 pm lights were switched off), at 22±2° C. and 50±10% relative humidity. After reception, mice were maintained for three additional acclimation weeks. During the whole test (acclimation+treatment phase) a high fat diet (D12492 purchased from Research Diet Inc.; 60% fat) and tap water were provided ad libitum.
(§2) After the acclimation period, mice were fasted for 6 hours and blood glucose and plasma insulin were measured. Ten animals, those with lower blood glucose/plasma insulin, were discarded from the study. […]
Body weight were weekly measured as well as blood glucose and plasma insulin after a 6 hour-fasting.
Blood glucose was measured by sampling blood from the tip of the tail: a drop of blood is collected and placed on a glucometer strip (Accu-Check® glucometer, Roche, Switzerland). Plasma insulin was detected via ELISA (Elisa Kit, Eurobio, France) using 5 μl samples.
The Homeostatic model assessment-insulin resistance index (HOMA-IR), which is used to quantify insulin resistance, was calculated from fasting blood glucose, and plasma insulin values as follows: HOMA-IR=(mM glucose×μU/mL insulin)/22.5, being this constant a normalizing factor (Matthews et al., 1985, Diabetologia 28(7), 412-9).

[2] = system: DIO mice (C57Bl/6J male mice); test: Liver weight, 36 days assay in DIO mice; settings: 50 mg/kg orally twice daily, after 36 days, vs saline control and metformin 150 mg/kg
Description: To assess the performance of the compounds disclosed decreasing liver overweight, DIO mice (C57Bl/6J male mice) were treated with compounds 4a and 5a during 36 days, versus a control of DIO mice treated with vehicle (0.9% NaCl) and DIO mice treated with Metformin as a positive control.
as §1, with “C57Bl/6J” for “C57Bl/6 J”, “France, were” for “France”, “(D12492;” for “(D12492”, “Inc” for “Inc.;”
as §2, with “study. Then, the others were randomized into 5 homogenous groups (n=10 mice per group) according to their blood glucose/plasma insulin levels (HOMA-IR) and body weight.” for “study.”

[3] = system: DIO mice (C57Bl/6 J male mice); test: Liver lipid content, 36 days assay in DIO mice (colorimetric kits); settings: 50 mg/kg orally twice daily, after 36 days, vs saline control
Description: To assess the performance of the compounds disclosed in decreasing hepatic lipid content, DIO mice (C57Bl/6 J male mice) were treated with a hydrochloride salt of compound 4a; and with compound 7a during 36 days, versus a control of DIO mice treated with saline (0.9% NaCl) and versus DIO mice treated with Metformin as a positive control.
as §1, with “France, were” for “France”, “assessment” for “test”, “Inc;” for “Inc.;”
After the acclimation period, mice were fasted for 6 hours and blood glucose and plasma insulin were measured. Ten animals, those with lower blood glucose/plasma insulin, were discarded from the study. Then, the others were randomized into 5 homogenous groups (n=10 mice per group) according to their blood glucose/plasma insulin levels (HOMA-IR) and body weight. Mice were treated orally twice daily for 36 days with either saline solution (control group), SJT test compound (4a, 7a; 50 mg/kg) or metformin (150 mg/kg).
Finally, mice were sacrificed, and liver was collected, weighted and stored at −80° C. for additional analysis. Liver samples were dissected for liver lipids assay. Liver lipids were assayed using colorimetric commercial assay kits, from liver samples homogenate after lipid solubilization in deoxycholate as described by Miao et al., J Lipid Res, 2004, 45, 1410-17. Samples were homogenized with an ultrasound probe with 500 μl distilled water during few seconds. Then cholic acid at 1% is added to make lipids soluble. The measurement of the different lipids was then performed using colorimetric kits from Sobioda, France.

**Q.** `COc1ccc(-c2nc(C(=O)NCCCN)cc3c2[nH]c2ccccc23)cc1` [Compound 5a, N(-propylamine)-1-benzosubstituted-β-carboline-3-carboxamide] was tested. Which “insulin resistance (HOMA-IR)” value [1] did it give?
**A.** lower insulin resistance compared to the control animals

**Q.** What about the “liver weight (liver overweight)” value [2] of the same compound?
**A.** lower liver weight than either mice treated with metformin or than the control animals

**Q.** `COc1ccc(-c2nc(C(=O)N/N=C/c3ccccc3)cc3c2[nH]c2ccccc23)cc1` [Compound 7a, 3-(carbohydrazyl-N′-phenylsubstitute)-1-benzosubstitute-β-carbolinic-3-carbohydrazide] was tested. Which “insulin resistance (HOMA-IR)” value [1] did it give?
**A.** lower insulin resistance compared to the control animals

**Q.** What about the hepatic cholesterol [3] of the same compound?
**A.** lower lipid levels than untreated control animals

**Q.** What about the hepatic fatty acids [3] of the same compound?
**A.** lower lipid levels than untreated control animals

**Q.** What about the hepatic triglycerides [3] of the same compound?
**A.** lower lipid levels than untreated control animals
